# Measurements taken from patent US5637595A, “Cyclic ether acetal PAF antagonists” (British Bio-technology Limited, priority 1991, dated 1997).
# Columns and labels:
# [1] = molecular target: T1, PAF receptor (human platelet plasma membranes) (Homo sapiens, UniProt P25105); experiment: Inhibition of [^3 H]-PAF receptor binding to human platelet plasma membranes; conditions: [^3 H]-PAF 0.5 nM, 0° C., 1 hour incubation, pH 7.0
# T1 construct: Platelet concentrates were obtained from a hospital blood bank; from tissue; host or cells: human platelets (platelet concentrates from a hospital blood bank), lysed membranes
# T1 sequence (P25105 whole entry): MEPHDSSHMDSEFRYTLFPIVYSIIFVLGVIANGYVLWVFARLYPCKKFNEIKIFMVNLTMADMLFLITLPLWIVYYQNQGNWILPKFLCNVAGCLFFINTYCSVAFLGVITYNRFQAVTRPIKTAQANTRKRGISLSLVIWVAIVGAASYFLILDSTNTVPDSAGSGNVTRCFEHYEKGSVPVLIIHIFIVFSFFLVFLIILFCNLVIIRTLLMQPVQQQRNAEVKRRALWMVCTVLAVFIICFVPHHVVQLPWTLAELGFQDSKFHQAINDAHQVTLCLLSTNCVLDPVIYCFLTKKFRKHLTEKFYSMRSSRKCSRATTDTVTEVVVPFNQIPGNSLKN
# Experimental: The inhibition of [^3 H]-PAF binding to human platelet plasma membranes by compounds of general formula I was determined by isotopic labelling and filtration techniques. Platelet concentrates were obtained from a hospital blood bank. These platelet concentrates (500-2500 ml.) were centrifuged at 800 rpm for 10 minutes in a SORVALL RC3B centrifuge to remove the red blood cells present. (The word SORVALL is a trade mark.) The supernalant was subsequently centrifuged at 3,000 rpm in a SORVALL RC3B centrifuge to pellet the platelets present. The platelet rich pellets were resuspended in a minimum volume of buffer (150 mM NaCl, 10 mM Tris, 2 mM EDTA, pH 7.5) and layered onto Ficoll-Paque gradients, 9 ml platelet concentrate to 2 ml Ficoll, and centrifuged at 1,900 rpm for 15 minutes in a SORVALL RT6000 centrifuge. This step removes the residual red blood cells and other nonspecific material such as lymphocytes from the preparation. The platelets which form a band between the plasma and the Ficoll were removed, resuspended in the above buffer and centrifuged at 3,000 rpm for 10 minutes in a SORVALL RT6000 centrifuge. The pelleted platelets were resuspended in buffer (10 mM Tris, 5mM MgCl2, 2 mM EDTA, pH 7.0), snap freezed in liquid N2 and allowed to thaw slowly at room temperature in order to lyse the platelets. The latter step was repeated at least 3 times to ensure proper lysis. […]
# [2] = tested on: PAF-induced hypotension in the rat; experiment: Inhibition of PAF-induced hypotension in the rat; type: in vivo, rat (male Sprague-Dawley); conditions: iv, anaesthetised rats, PAF 100 ng/kg/min i.v. infusion, test compound i.v. bolus, straight line interpolation, read-out: ED50, dose to cause a 50% reversal of the hypotensive PAF response
# Experimental: Male Sprague-Dawley rats (300-400 g) were anaesthetised with a mixture of sodium pentobarbitone, 22.5 mg/kg and thiopental 62.5 mg/kg. Through a midline incision in the neck, the trachea was cannulated and the animals breathed spontaneously. A carotid artery was cannulated for the measurement of blood pressure and this signal was used to trigger a rate meter to measure heart rate. Both jugular veins were cannulated: one for the infusion of PAF and the other for the bolus administration of test compounds.
# PAF, 100 ng/kg/min was infused i.v. until a sustained fall in mean blood pressure of 50 mmHg was achieved. […] The peak of this reversal was measured and the dose to cause a 50% reversal of the hypotensive PAF response (ED50) calculated by straight line interpolation and the results are presented in Table 2.
SMILES,IC50 [1] [nM],ED50 [2] [µg/kg]
"CCCCCCCC1CCCC(OCCCn2c(C)nc3cnccc32)O1 (stereo not drawn) [Example 1, O-(3-(2-Methylimidazo[4,5-c]pyrid-1-yl)propyl)-5-n-heptyl-delta-valerolactol ether]",80,
"CCCCCCCC1CCC(OCCCn2c(C)nc3cnccc32)O1 (stereo not drawn) [Example 2, O-(3-(2-Methylimidazo[4,5-c]pyrid-1-yl)propyl)-5-n-heptyl-gamma-butyrolactol ether]",120,2.1
